# According to ChEMBL document CHEMBL5653628, “Selective JAK3 Inhibitors with a Covalent Reversible Binding Mode Targeting a New Induced Fit Binding Pocket” (Cell Chem Biol, 2016):
# Activity calls are given as the source filed them. The rule behind the calls is not given here.
# How the values were obtained:
# Protein kinase C (PKC) = assay: Inhibition of PKC (unknown origin); type: protein assay, Homo sapiens
# [1] = target: Glycogen synthase kinase-3 beta (Homo sapiens, UniProt P49841); assay: Inhibition of GSK3beta (unknown origin)
# [2] = target: T1, Tyrosine-protein kinase JAK3 (Homo sapiens, UniProt P52333)
# T1 sequence (P52333 whole entry): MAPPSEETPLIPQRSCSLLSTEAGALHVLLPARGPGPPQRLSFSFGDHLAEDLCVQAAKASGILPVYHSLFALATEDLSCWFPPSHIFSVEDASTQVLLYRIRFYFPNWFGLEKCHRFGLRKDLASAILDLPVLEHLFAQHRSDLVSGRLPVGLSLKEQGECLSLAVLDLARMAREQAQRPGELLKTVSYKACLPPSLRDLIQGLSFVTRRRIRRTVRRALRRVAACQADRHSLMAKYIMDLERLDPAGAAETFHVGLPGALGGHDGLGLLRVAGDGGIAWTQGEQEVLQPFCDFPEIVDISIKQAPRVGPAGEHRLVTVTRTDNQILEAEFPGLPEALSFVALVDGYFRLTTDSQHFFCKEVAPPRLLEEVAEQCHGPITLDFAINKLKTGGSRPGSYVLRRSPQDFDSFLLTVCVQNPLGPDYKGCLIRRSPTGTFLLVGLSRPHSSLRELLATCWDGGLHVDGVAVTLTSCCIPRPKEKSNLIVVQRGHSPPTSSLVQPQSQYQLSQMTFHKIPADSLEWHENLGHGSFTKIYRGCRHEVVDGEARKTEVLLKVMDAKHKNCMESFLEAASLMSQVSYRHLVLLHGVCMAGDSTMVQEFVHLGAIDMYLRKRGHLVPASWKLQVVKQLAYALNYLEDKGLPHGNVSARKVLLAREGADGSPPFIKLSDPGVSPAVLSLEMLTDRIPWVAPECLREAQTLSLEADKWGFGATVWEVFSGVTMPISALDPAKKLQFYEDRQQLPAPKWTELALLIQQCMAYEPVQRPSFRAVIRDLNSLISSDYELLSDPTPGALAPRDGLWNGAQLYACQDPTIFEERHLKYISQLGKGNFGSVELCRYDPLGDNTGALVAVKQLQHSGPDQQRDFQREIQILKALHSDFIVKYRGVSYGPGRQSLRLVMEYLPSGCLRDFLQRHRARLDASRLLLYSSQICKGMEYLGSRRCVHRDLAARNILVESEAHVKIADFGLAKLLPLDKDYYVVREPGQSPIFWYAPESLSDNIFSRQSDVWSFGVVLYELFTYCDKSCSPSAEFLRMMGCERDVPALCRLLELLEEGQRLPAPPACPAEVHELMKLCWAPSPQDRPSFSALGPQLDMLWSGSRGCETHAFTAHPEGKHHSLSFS
# Description: Inhibition of JAK3 (unknown origin) in presence of ATP by radiometric assay
# [3] = target: Tyrosine-protein kinase BTK (Homo sapiens, UniProt Q06187); assay: Inhibition of BTK (unknown origin) by trFRET binding assay
# [4] = target: Fibroblast growth factor receptor 1 (Homo sapiens, UniProt P11362); assay: Inhibition of FGFR1 (unknown origin) by trFRET binding assay
# [5] = target: G protein-coupled receptor kinase 5 (Homo sapiens, UniProt P34947); assay: Inhibition of GRK5 (unknown origin) by trFRET binding assay
# [6] = target: T1, Tyrosine-protein kinase JAK3; assay: Inhibition of JAK3 (unknown origin) by trFRET binding assay
# [7] = target: Leukocyte tyrosine kinase receptor (Homo sapiens, UniProt P29376); assay: Inhibition of LTK (unknown origin) by trFRET binding assay
# [8] = target: Mitogen-activated protein kinase kinase kinase kinase 2 (Homo sapiens, UniProt Q12851); assay: Inhibition of MAP4K2 (unknown origin) by trFRET binding assay
# [9] = target: Proto-oncogene tyrosine-protein kinase receptor Ret (Homo sapiens, UniProt P07949); assay: Inhibition of RET (unknown origin) by trFRET binding assay
# [10] = target: Serine/threonine-protein kinase 33 (Homo sapiens, UniProt Q9BYT3); assay: Inhibition of STK33 (unknown origin) by trFRET binding assay
# Homo sapiens = species on record: Homo sapiens; assay: Inhibition of AMPK (unknown origin) at 1 uM relative to control
# [11] = target: T2, Tyrosine-protein kinase Fyn (Homo sapiens, UniProt P06241); assay: Inhibition of FYN (unknown origin) by trFRET binding assay
# [12] = target: Dual specificity protein kinase CLK3 (Homo sapiens) (UniProt P49761); details: dose 500.0 nM
# Description: Inhibition of CLK3 (unknown origin) at 500 nM relative to control
# [13] = target: Tyrosine-protein kinase CSK (Homo sapiens) (UniProt P41240); details: dose 500.0 nM
# Description: Inhibition of CSK (unknown origin) at 500 nM relative to control
# [14] = target: Receptor tyrosine-protein kinase erbB-4 (Homo sapiens) (UniProt Q15303); details: dose 500.0 nM
# Description: Inhibition of ERBB4 (unknown origin) at 500 nM relative to control
# [15] = tested on: Fibroblast growth factor receptor 3 (Homo sapiens), P22607 [G697C]; details: dose 500.0 nM
# [16] = target: T2, Tyrosine-protein kinase Fyn; details: dose 500.0 nM
# Description: Inhibition of wild-type FYN (unknown origin) at 500 nM relative to control
# [17] = target: G protein-coupled receptor kinase 6 (Homo sapiens) (UniProt P43250); details: dose 500.0 nM
# Description: Inhibition of GRK6 (unknown origin) at 500 nM relative to control
# [18] = target: Serine/threonine-protein kinase haspin (Homo sapiens) (UniProt Q8TF76); details: dose 500.0 nM
# Description: Inhibition of GSG2 (unknown origin) at 500 nM relative to control
# [19] = target: Homeodomain-interacting protein kinase 1 (Homo sapiens) (UniProt Q86Z02); details: dose 500.0 nM
# Description: Inhibition of HIPK1 (unknown origin) at 500 nM relative to control
# [20] = target: T3, Tyrosine-protein kinase JAK3 (Homo sapiens) (UniProt P52333); details: dose 500.0 nM
# T3 sequence (whole entry): T1 sequence (P52333 whole entry)
# Description: Inhibition of JAK3 (unknown origin) at 500 nM relative to control
# [21] = tested on: Mast/stem cell growth factor receptor Kit (Homo sapiens), P10721 [V559D,V654A]; details: dose 500.0 nM
# [22] = target: MAP kinase-activated protein kinase 2 (Homo sapiens) (UniProt P49137); details: dose 500.0 nM
# Description: Inhibition of MAPKAPK2 (unknown origin) at 500 nM relative to control
# [23] = target: MAP kinase-activated protein kinase 3 (Homo sapiens) (UniProt Q16644); details: dose 500.0 nM
# Description: Inhibition of MAPKAPK3 (unknown origin) at 500 nM relative to control
# [24] = target: Hepatocyte growth factor-like protein (Homo sapiens) (UniProt P26927); details: dose 500.0 nM
# Description: Inhibition of MST1 (unknown origin) at 500 nM relative to control
# [25] = target: Serine/threonine-protein kinase Nek6 (Homo sapiens) (UniProt Q9HC98); details: dose 500.0 nM
# Description: Inhibition of NEK6 (unknown origin) at 500 nM relative to control
# [26] = target: Mitogen-activated protein kinase kinase kinase kinase 4 (Homo sapiens) (UniProt O95819); details: dose 500.0 nM
# Description: Inhibition of NIK (unknown origin) at 500 nM relative to control
# [27] = tested on: NPM/ALK (Nucleophosmin/ALK tyrosine kinase receptor) (Homo sapiens), Q9UM73+P06748 [F1174L]; details: dose 500.0 nM
# Description: Inhibition of NPM1ALK F1174L mutant (unknown origin) at 500 nM relative to control
# [28] = target: Mitogen-activated protein kinase 14 (Homo sapiens) (UniProt Q16539); details: dose 500.0 nM
# Description: Inhibition of p38-alpha (unknown origin) at 500 nM relative to control
# [29] = target: Serine/threonine-protein kinase D1 (Homo sapiens) (UniProt Q15139); details: dose 500.0 nM
# Description: Inhibition of PKC-mu (unknown origin) at 500 nM relative to control
# [30] = target: Macrophage-stimulating protein receptor (Homo sapiens) (UniProt Q04912); details: dose 500.0 nM
# Description: Inhibition of RON (unknown origin) at 500 nM relative to control
# [31] = target: STE20/SPS1-related proline-alanine-rich protein kinase (Homo sapiens) (UniProt Q9UEW8); details: dose 500.0 nM
# Description: Inhibition of STK39 (unknown origin) at 500 nM relative to control
# [32] = target: Phosphatidylinositol 3-kinase catalytic subunit type 3 (Homo sapiens) (UniProt Q8NEB9); details: dose 500.0 nM
# Description: Inhibition of PIK3C3 (unknown origin) at 500 nM relative to control
# [33] = target: Phosphatidylinositol 4,5-bisphosphate 3-kinase catalytic subunit gamma isoform (Homo sapiens) (UniProt P48736); details: dose 500.0 nM
# Description: Inhibition of PIK3CG (unknown origin) at 500 nM relative to control
# [34] = target: T3, Tyrosine-protein kinase JAK3 (Homo sapiens); details: HeLa, dose 100.0 nM, time 2.0 hrs
# [35] = target: T3, Tyrosine-protein kinase JAK3 (Homo sapiens); details: HeLa, dose 100.0 nM, time 1.0 hrs
# CD4+ve Th [36] = details: Homo sapiens, dose 50-100 nM, time 1.5 hrs
# CD4+ve Th [37] = details: Homo sapiens, dose <= 1000.0 nM, time 1.5 hrs
# CD4+ve Th [38] = details: Homo sapiens, dose <= 1000.0 nM, time 1.5 hrs; remark: listed apart in the source
# cells [39] = details: Homo sapiens, CD4+ve Th, 1.5 h, read-out: INH
# cells [40] = details: Homo sapiens, CD4+ve Th, 1.5 h, read-out: INH; remark: listed apart in the source
# [41] = target: Tyrosine-protein kinase Blk (Homo sapiens) (UniProt P51451); details: dose 100.0 nM
# Description: Inhibition of BLK (unknown origin) at 100 nM relative to control
# [42] = tested on: Epidermal growth factor receptor (Homo sapiens), P00533 [UNDEFINED MUTATION]; details: dose 100.0 nM
# Description: Inhibition of EGFR d747-752/P753S double mutant (unknown origin) at 100 nM relative to control
# [43] = target: Tyrosine-protein kinase ITK/TSK (Homo sapiens) (UniProt Q08881); details: dose 100.0 nM
# Description: Inhibition of ITK (unknown origin) at 100 nM relative to control
# [44] = target: Tyrosine-protein kinase JAK2 (Homo sapiens) (UniProt O60674); details: dose 100.0 nM
# Description: Inhibition of JAK2 (unknown origin) at 100 nM relative to control
# [45] = target: T3, Tyrosine-protein kinase JAK3 (Homo sapiens); details: dose 100.0 nM
# Description: Inhibition of JAK3 (unknown origin) at 100 nM relative to control
# [46] = tested on: Leucine-rich repeat serine/threonine-protein kinase 2 (Homo sapiens), Q5S007 [G2019S]; details: dose 100.0 nM
# [47] = tested on: Leucine-rich repeat serine/threonine-protein kinase 2 (Homo sapiens), Q5S007 [I2020T]; details: dose 100.0 nM
# [48] = tested on: Leucine-rich repeat serine/threonine-protein kinase 2 (Homo sapiens), Q5S007 [R1441C]; details: dose 100.0 nM
# [49] = target: Leucine-rich repeat serine/threonine-protein kinase 2 (Homo sapiens) (UniProt Q5S007); details: dose 100.0 nM
# Description: Inhibition of wild-type LRRK2 (unknown origin) at 100 nM relative to control
# [50] = target: Mitogen-activated protein kinase kinase kinase 11 (Homo sapiens) (UniProt Q16584); details: dose 100.0 nM
# Description: Inhibition of MAP3K11 (unknown origin) at 100 nM relative to control
# [51] = target: Mitogen-activated protein kinase kinase kinase kinase 2 (Homo sapiens) (UniProt Q12851); details: dose 100.0 nM
# Description: Inhibition of MAP4K2 (unknown origin) at 100 nM relative to control
# [52] = target: MAP kinase-activated protein kinase 2 (Homo sapiens) (UniProt P49137); details: dose 100.0 nM
# Description: Inhibition of MAPKAPK2 (unknown origin) at 100 nM relative to control
# [53] = target: MAP kinase-activated protein kinase 5 (Homo sapiens) (UniProt Q8IW41); details: dose 100.0 nM
# Description: Inhibition of MAPKAPK5 (unknown origin) at 100 nM relative to control
# [54] = target: Misshapen-like kinase 1 (Homo sapiens) (UniProt Q8N4C8); details: dose 100.0 nM
# Description: Inhibition of MINK1 (unknown origin) at 100 nM relative to control
# [55] = target: Muscle, skeletal receptor tyrosine-protein kinase (Homo sapiens) (UniProt O15146); details: dose 100.0 nM
# Description: Inhibition of MUSK (unknown origin) at 100 nM relative to control
# [56] = target: Protein kinase C beta type (Homo sapiens) (UniProt P05771); details: dose 100.0 nM
# Description: Inhibition of PKC-beta2 (unknown origin) at 100 nM relative to control
# [57] = target: Protein kinase C delta type (Homo sapiens) (UniProt Q05655); details: dose 100.0 nM
# Description: Inhibition of PKC-delta (unknown origin) at 100 nM relative to control
# [58] = target: Serine/threonine-protein kinase N2 (Homo sapiens) (UniProt Q16513); details: dose 100.0 nM
# Description: Inhibition of PRK2 (unknown origin) at 100 nM relative to control
# [59] = target: Rho-associated protein kinase 1 (Homo sapiens) (UniProt Q13464); details: dose 100.0 nM
# Description: Inhibition of ROCK1 (unknown origin) at 100 nM relative to control
# [60] = target: Ribosomal protein S6 kinase alpha-2 (Homo sapiens) (UniProt Q15349); details: dose 100.0 nM
# Description: Inhibition of RPS6KA2 (unknown origin) at 100 nM relative to control
# [61] = target: Ribosomal protein S6 kinase alpha-6 (Homo sapiens) (UniProt Q9UK32); details: dose 100.0 nM
# Description: Inhibition of RPS6KA6 (unknown origin) at 100 nM relative to control
# [62] = target: Non-receptor tyrosine-protein kinase TNK1 (Homo sapiens) (UniProt Q13470); details: dose 100.0 nM
# Description: Inhibition of TNK1 (unknown origin) at 100 nM relative to control
# [63] = target: Vascular endothelial growth factor receptor 2 (Homo sapiens, UniProt P35968); details: dose 100.0 nM
# Description: Inhibition of VEGFR2 (unknown origin) at 100 nM relative to control
# [64] = tested on: Epidermal growth factor receptor (Homo sapiens), P00533 [UNDEFINED MUTATION]; details: dose 500.0 nM
# Description: Inhibition of EGFR d747-752/P753S double mutant (unknown origin) at 500 nM relative to control
# Sequence of MAP kinase-activated protein kinase 2 (Homo sapiens) (P49137 whole entry, looked up): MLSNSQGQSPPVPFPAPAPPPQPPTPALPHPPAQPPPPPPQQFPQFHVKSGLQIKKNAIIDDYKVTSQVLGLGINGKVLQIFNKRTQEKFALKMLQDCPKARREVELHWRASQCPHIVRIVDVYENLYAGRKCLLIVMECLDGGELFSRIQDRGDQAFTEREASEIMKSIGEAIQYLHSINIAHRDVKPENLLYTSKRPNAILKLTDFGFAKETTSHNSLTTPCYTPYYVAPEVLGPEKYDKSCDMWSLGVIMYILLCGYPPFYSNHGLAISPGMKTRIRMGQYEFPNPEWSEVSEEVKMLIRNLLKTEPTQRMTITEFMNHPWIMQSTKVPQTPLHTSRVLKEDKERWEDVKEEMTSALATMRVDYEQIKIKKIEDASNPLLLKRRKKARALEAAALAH
# Sequence of Epidermal growth factor receptor (Homo sapiens), P00533 [UNDEFINED MUTATION] (P00533 whole entry, looked up, change not shown): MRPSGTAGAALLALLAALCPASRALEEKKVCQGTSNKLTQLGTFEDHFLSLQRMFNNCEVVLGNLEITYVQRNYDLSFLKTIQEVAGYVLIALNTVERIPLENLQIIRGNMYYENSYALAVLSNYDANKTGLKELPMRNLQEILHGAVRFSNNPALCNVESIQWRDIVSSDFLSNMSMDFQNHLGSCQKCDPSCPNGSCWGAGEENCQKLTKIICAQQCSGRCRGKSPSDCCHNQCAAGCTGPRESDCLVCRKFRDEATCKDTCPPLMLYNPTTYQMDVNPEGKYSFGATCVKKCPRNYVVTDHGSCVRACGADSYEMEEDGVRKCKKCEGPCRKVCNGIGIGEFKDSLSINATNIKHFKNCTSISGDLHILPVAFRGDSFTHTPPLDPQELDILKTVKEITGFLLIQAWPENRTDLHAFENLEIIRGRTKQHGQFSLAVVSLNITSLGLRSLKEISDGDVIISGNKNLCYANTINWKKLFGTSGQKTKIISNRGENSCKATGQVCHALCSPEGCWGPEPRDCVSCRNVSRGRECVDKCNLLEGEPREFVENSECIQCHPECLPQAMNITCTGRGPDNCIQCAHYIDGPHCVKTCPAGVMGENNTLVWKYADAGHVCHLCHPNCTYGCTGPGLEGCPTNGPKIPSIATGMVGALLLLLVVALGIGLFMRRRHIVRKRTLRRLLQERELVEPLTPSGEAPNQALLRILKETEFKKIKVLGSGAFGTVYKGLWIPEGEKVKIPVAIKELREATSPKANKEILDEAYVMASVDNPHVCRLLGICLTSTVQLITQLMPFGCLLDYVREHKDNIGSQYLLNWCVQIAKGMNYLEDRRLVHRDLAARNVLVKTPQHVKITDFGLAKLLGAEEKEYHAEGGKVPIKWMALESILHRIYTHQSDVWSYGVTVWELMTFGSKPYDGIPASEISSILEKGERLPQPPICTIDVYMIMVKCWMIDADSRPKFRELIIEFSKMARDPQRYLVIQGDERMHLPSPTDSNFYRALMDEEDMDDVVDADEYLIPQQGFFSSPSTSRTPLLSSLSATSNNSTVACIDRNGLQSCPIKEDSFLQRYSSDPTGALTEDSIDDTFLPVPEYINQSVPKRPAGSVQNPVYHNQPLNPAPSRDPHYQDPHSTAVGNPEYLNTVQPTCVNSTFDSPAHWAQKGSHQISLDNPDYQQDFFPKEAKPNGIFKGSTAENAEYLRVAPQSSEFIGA
# Sequence of Mast/stem cell growth factor receptor Kit (Homo sapiens), P10721 [V559D,V654A] (P10721 whole entry V559D/V654A): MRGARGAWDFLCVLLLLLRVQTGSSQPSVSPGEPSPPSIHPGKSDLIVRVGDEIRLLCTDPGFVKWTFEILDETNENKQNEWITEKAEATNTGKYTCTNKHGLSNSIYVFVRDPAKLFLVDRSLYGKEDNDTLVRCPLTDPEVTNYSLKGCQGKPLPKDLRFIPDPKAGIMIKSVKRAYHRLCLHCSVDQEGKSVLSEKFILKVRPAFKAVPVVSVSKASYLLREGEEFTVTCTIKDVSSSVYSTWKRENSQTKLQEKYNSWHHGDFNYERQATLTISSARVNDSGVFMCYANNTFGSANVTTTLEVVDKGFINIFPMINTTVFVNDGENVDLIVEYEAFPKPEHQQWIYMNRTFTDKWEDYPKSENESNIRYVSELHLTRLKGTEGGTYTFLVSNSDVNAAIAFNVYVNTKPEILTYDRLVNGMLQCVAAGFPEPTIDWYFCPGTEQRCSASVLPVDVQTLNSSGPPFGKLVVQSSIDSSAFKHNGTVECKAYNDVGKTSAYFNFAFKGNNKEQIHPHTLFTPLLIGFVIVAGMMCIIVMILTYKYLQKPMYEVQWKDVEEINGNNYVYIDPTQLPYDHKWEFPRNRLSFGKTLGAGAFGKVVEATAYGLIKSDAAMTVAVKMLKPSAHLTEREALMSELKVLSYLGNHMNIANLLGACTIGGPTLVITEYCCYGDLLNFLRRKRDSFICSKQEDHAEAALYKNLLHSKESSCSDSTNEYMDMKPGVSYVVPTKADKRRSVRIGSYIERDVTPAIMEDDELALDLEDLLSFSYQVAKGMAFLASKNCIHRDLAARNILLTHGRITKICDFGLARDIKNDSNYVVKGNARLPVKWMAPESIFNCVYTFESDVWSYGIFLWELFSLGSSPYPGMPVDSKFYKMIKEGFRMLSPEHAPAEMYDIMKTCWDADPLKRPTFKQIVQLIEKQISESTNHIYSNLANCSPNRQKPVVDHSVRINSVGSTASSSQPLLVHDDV
# Sequence of Serine/threonine-protein kinase haspin (Homo sapiens) (Q8TF76 whole entry): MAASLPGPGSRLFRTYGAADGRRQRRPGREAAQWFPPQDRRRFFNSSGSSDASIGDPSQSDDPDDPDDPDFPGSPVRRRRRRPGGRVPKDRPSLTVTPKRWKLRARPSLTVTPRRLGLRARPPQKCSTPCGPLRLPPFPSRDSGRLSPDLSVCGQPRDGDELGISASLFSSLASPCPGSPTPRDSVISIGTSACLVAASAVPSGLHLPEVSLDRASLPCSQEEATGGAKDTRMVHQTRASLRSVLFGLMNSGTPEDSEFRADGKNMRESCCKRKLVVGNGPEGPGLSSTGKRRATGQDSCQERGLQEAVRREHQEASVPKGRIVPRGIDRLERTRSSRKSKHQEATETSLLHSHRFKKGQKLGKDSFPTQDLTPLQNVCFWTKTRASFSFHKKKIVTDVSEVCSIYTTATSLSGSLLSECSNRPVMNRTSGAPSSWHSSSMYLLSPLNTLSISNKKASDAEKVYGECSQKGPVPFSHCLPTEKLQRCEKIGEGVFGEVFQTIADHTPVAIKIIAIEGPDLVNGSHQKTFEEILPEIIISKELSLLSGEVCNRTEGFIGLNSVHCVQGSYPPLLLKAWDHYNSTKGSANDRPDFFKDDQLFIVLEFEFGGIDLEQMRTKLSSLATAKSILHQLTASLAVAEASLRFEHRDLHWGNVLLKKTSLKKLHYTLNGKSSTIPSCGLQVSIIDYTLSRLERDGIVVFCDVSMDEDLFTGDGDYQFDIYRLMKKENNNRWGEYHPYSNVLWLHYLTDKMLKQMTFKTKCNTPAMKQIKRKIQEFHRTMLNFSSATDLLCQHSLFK
# Sequence of Rho-associated protein kinase 1 (Homo sapiens) (Q13464 2-1354 limits assumed): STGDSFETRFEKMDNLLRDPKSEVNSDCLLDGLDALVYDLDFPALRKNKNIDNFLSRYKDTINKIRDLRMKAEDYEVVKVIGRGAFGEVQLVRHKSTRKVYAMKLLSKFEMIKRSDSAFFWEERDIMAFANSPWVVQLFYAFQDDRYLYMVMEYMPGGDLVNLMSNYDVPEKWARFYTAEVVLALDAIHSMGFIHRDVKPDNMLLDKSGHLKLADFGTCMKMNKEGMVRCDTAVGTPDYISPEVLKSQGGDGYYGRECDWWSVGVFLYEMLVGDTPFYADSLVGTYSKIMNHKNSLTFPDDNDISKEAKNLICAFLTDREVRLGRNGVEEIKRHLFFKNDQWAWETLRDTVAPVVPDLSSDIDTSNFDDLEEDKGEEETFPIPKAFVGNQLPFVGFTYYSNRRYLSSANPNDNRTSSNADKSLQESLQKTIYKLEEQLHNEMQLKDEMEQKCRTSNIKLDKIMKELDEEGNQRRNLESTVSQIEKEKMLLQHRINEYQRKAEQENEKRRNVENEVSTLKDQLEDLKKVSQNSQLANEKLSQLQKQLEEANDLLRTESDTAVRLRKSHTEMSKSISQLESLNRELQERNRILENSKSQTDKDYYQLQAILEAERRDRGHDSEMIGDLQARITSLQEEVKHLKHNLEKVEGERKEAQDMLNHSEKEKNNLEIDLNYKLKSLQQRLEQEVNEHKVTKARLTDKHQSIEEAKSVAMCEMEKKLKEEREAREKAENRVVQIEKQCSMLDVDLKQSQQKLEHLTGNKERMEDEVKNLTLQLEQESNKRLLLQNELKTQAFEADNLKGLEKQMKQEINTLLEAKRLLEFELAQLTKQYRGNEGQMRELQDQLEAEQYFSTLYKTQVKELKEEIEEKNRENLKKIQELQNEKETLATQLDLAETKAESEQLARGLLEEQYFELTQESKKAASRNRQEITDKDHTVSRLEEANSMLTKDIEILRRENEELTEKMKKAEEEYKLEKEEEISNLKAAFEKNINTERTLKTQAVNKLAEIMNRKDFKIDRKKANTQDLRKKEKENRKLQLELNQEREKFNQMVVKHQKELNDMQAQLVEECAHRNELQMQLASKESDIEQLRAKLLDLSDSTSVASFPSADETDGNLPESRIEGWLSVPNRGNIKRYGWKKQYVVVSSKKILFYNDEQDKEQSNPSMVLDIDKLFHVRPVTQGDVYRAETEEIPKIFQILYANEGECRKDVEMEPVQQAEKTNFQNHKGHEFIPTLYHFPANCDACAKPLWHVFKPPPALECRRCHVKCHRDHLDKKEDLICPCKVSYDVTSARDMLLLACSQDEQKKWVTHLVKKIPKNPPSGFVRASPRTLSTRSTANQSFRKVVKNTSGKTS
# Sequence of Serine/threonine-protein kinase Nek6 (Homo sapiens) (Q9HC98 whole entry): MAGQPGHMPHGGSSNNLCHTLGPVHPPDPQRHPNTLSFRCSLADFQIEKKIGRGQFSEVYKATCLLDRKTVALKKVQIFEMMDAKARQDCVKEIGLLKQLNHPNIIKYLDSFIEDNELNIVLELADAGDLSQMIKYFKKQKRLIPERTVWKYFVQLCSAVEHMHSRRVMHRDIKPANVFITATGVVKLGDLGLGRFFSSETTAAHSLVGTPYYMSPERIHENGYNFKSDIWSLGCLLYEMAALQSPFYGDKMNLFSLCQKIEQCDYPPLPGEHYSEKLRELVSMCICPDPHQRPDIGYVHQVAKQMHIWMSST
smiles,measurement,setting,value
CC(C)(O)C(=O)N1CCN(c2ccc(C(F)(F)F)c(C3=C(c4c[nH]c5ccccc45)C(=O)NC3=O)c2)CC1,IC50,Protein kinase C (PKC),< 1000 nM
same,IC50,[1],< 1000 nM
Cn1c(=O)n([C@@H]2CC[C@@H](O)c3ccccc32)c2cc(-n3cnc4ccc(C#N)cc43)ccc21,IC50,[2],0.9 nM
C=CC(=O)Nc1nc2cnc3[nH]ccc3c2n1C,IC50,[2],3 nM
same,IC50,[3],1250 nM
same,IC50,[4],3100 nM
same,IC50,[5],9400 nM
same,IC50,[6],2 nM
same,IC50,[7],5600 nM
same,IC50,[8],7400 nM
same,IC50,[9],7800 nM
same,IC50,[10],7100 nM
CN(C)C/C=C/C(=O)Nc1nc2cnc3[nH]ccc3c2n1C,IC50,[2],7 nM
CC(C)(C)[C@@H](NC(=O)c1c[nH]c2ncc(C3CC3)nc12)C(=O)N1CC(C#N)C1,inhibition,Homo sapiens,67%
CN(C)C(=O)C(C#N)=Cc1ccc(-c2nc3cnc4[nH]ccc4c3n2C2CCCCC2)o1 (mixture of isomers),IC50,[11],660 nM
same,inhibition,[12],65%
same,inhibition,[13],100%
same,inhibition,[14],100%
same,inhibition,[15],135%
same,inhibition,[16],135%
same,inhibition,[17],62%
same,inhibition,[18],133%
same,inhibition,[19],100%
same,inhibition,[20],11%
same,inhibition,[21],142%
same,inhibition,[22],53%
same,inhibition,[23],100%
same,inhibition,[24],100%
same,inhibition,[25],100%
same,inhibition,[26],100%
same,inhibition,[27],100%
same,inhibition,[28],100%
same,inhibition,[29],100%
same,inhibition,[30],145%
same,inhibition,[31],148%
same,inhibition,[32],100%
same,inhibition,[33],141%
same,inhibition,[34],Active
same,inhibition,[35],Active
same,inhibition,CD4+ve Th [36],Active
same,inhibition,CD4+ve Th [37],inactive
same,inhibition,CD4+ve Th [38],inactive
same,inhibition at 0.3 µM,cells [39],100%
same,inhibition at 0.3 µM,cells [40],100%
CC1CCCCC1n1c(-c2ccc(C=C(C#N)C(=O)N(C)C)o2)nc2cnc3[nH]ccc3c21 (mixture of isomers),inhibition,[41],57%
same,inhibition,[42],100%
same,inhibition,[43],52%
same,inhibition,[44],60%
same,inhibition,[45],3%
same,inhibition,[46],48%
same,inhibition,[47],40%
same,inhibition,[48],22%
same,inhibition,[49],34%
same,inhibition,[50],49%
same,inhibition,[51],54%
same,inhibition,[52],60%
same,inhibition,[53],100%
same,inhibition,[54],100%
same,inhibition,[55],61%
same,inhibition,[56],31%
same,inhibition,[57],60%
same,inhibition,[58],48%
same,inhibition,[59],61%
same,inhibition,[60],26%
same,inhibition,[61],40%
same,inhibition,[62],51%
same,inhibition,[63],60%
same,inhibition,[64],100%
same,inhibition,[20],3%
same,inhibition,CD4+ve Th [36],Active
same,inhibition,CD4+ve Th [37],inactive
same,inhibition,CD4+ve Th [38],inactive
same,inhibition at 0.3 µM,cells [39],100%
same,inhibition at 0.3 µM,cells [40],100%
